In patent US20210093607A1, “ANTITUMOR NANO-DRUG” (SICHUAN YUANNING BIOLOGICAL TECHNOLOGY CO., LTD., priority 2018, published 2021):
Structures can show the parent of a compound that is named as a salt.

Tests used:
[1] = test system: SW480 cells; experiment: Determination of superoxide anion in mitochondria; assay type: cell-based, human; settings: SW480, 1 mM, incubation 4 h, laser confocal
Procedure: Determination of superoxide anion (O2^+) in mitochondria: SW480 cells in logarithmic growth active phase were prepared into cell suspension and added into 6-well plate (5×10^5 cells/well). […] After incubation for 4 h, the old culture medium was removed and 1 mL of fluorescent amine dye (50 μM) was added. After incubation for 2 h, cysteine was added to make the final concentration to be 200 μM. After incubation for 0.5 h, culture medium was removed and cells were washed with Krebs buffer for 3 times, then mitochondrial red dye was added to proceed mitochondrial staining for 30 min, and cells were washed with 37°C. medium for 3 times. Finally, the emission of fluorescent amine at 440-480 nm was detected by laser confocal to quantify […], and the emission of mitochondrial red dye at 590-650 nm was detected to locate mitochondria in cells.
Determination of superoxide anion (O2^+) in mitochondria: SW480 cells in logarithmic growth active phase were prepared into cell suspension and added into 6-well plate (5×10^5 cells/well). […] Finally, the emission of fluorescent amine at 440-480 nm was detected by laser confocal to quantify O2^+, and the emission of mitochondrial red dye at 590-650 nm was detected to locate mitochondria in cells.

[2] = test system: SW480 cells; experiment: Determination of mitochondrial membrane potential (JC-1); assay type: cell-based, human; settings: SW480, 1 mM, incubation 24 h, JC-1, flow cytometry
Procedure: Determination of mitochondrial membrane potential: SW480 cells in logarithmic growth active phase were prepared into cell suspension and added into 6-well plate (5×10^5 cells/well). […] After incubation for 24 h, the old culture medium was removed, and the cells of each group were collected and centrifuged to obtain pure cells. 1 mL working solution of mitochondrial membrane potential detection kit (JC-1) was added to the collected cells, and then they were mixed thoroughly and incubated for 20 min. Then the mixture was centrifuged at 4°C. to remove working solution, and the cells were washed twice with JC-1 staining buffer (1×) on ice. Finally, 500 μL staining buffer was added to disperse the cells to obtain a cell suspension, and the change of mitochondrial membrane potential was detected by flow cytometry.
Determination of mitochondrial membrane potential: SW480 cells in logarithmic growth active phase were prepared into cell suspension and added into 6-well plate (5×10^5 cells/well). After incubation for 24 h, cells were treated with 1 mM hydroxyurea, 1 mM cLAVs and 1 mM nano-drug XI, respectively, and ntreated cells were set as blank control group. […] Finally, 500 μL staining buffer was added to disperse the cells to obtain a cell suspension, and the change of mitochondrial membrane potential was detected by flow cytometry.

[3] = test system: Caspase-3; experiment: Determination of Caspase-3 activity; assay type: cell-based, human; settings: SW480, 1 mM, incubation 24 h, relative to blank control
Procedure: Determination of Caspase-3 activity: SW480 cells in logarithmic growth active phase were prepared into cell suspension and added into 6-well plate (4×10^5 cells/well). […] After incubation for 24 h, the old culture medium was removed and cells were collected and then centrifuged for 5 min (1200 rpm/min) at 4°C. The cells were washed with cold PBS twice, and the supernatant was sucked up as much as possible every time. 100 μL of cell lysate containing 1 mM phenylmethylsulfonyl fluoride (PMSF, protease inhibitor) was added to the collected cells, which were placed on ice for 30 min and vortex once every 5 min. […] 20 μL supernatant was taken for detection with Caspase-3 activity detection kit, and the absorbance value at A405 nm or A400 was measured by microplate reader. According to the absorbance ratio of material group cells to blank control group cells, the relative Caspase-3 activity degree was calculated.
Determination of Caspase-3 activity: SW480 cells in logarithmic growth active phase were prepared into cell suspension and added into 6-well plate (5×10^5 cells/well). […] 20 μL supernatant was taken for detection with Caspase-3 activity detection kit, and the absorbance value at A405 nm or A400 nm was measured by microplate reader. According to the absorbance ratio of material group cells to blank control group cells, the relative Caspase-3 activity degree was calculated.

[4] = test system: Subcutaneous SW480 xenograft model; experiment: In vivo antitumor assessment, subcutaneous SW480 xenograft; design: species or system BALB/c nude mice; settings: SW480 xenograft nude mice; LA/cLAVs 10 mg/kg, Hydrea 6 mg/kg; once every 3 days, 8 times
Text: Subcutaneous SW480 xenograft model was established in BALB/c nude mice (about 20 g each) of 4 weeks old.

[5] = test system: SW480 cells; experiment: Determination of cytochrome C release (western blot); assay type: cell-based, human; settings: SW480, 1 mM, incubation 24 h
Procedure: Determination of cytochrome C release: SW480 cells in logarithmic growth active phase were prepared into cell suspension and added into 6-well plate (5×10^5 cells/well). […] After incubation for 24 h, the old culture medium was removed and cells were collected. The collected cells were centrifuged (1200 rpm/min) for 5 min at 4°C., and the supernatant was removed. The cells were washed with cold PBS twice, and die supernatant was sucked up as much as possible every lime. 100 μL of cell lysate containing 1 mM phenylmethylsulfonyl fluoride (PMSF, protease inhibitor) was added to the collected cells, which were placed on ice for 30 min and vortex once every 5 min. Then the mixture was centrifuged at 12000 rpm at 4°C. for 60 min, and the supernatant was quickly collected in another clean centrifuge tube, 20 μL supernatant was taken to analyze the content of cytochrome C in cytoplasm by western blot.
Determination of cytochrome C release: SW480 cells in logarithmic growth active phase were prepared into cell suspension and added into 6-well plate (5×10^5 cells/well). After incubation for 24 h, cells were treated with […], 1 mM cLAVs and 1 mM nano-drug XI, respectively, and untreated cells were set as blank control group. After incubation for 24 h, the old culture medium was removed and cells were collected. […]

[6] = test system: Human gingival fibroblasts (HGF); assay type: cell-based; settings: MTT, 48 h
Procedure: Human gingival fibroblasts (HGF) in logarithmic growth active phase were selected and inoculated in 96-well plates. […] Different concentration gradients were set for each group, and 5 parallel samples were set for each concentration Untreated cells were set as blank control group. After incubation for 48 h, the old culture medium was removed, and 100 μL fresh medium containing 10% (v/v) MTT was added to each well. After incubation for another 2 h, the culture media was removed and 150 μL dimethyl sulfoxide/well was added. After shaking for 2 min, the absorbance of the solution was measured at 490 nm by using a microplate reader Varioscan Flash and cell viability was calculated.
Untreated cells were set as blank control group. After 48 h of culture, the old culture medium was removed, and 100 μL of culture medium containing 10% (v/v) MTT was added to each well. After incubation for 2 h, 150 μL DMSO was added to each well, and the absorbance at 490 nm was measured with a microplate reader for 2 min, and the cell survival rate was calculated.

Compound | relative superoxide anion level in mitochondria [1] | mitochondrial membrane potential loss [2] | relative Caspase-3 activity [3] | tumor inhibition effect (tumor volume) [4] | cytochrome C release into cytoplasm [5] | toxicity to normal cells (cell viability) [6]
O=C(O)CCCC[C@@H]1CCSS1 [LA, (R)-(+)-lipoic acid] | can induce mitochondria to produce O2^+ | can induce the decrease of mitochondrial membrane potential | can stimute the relative activity of Caspase-3 |  |  | 
NC(=O)NO [hydroxyurea] | can all induce mitochondria to produce O2^+ | can all induce the decrease of mitochondrial membrane potential | can stimulate the relative activity of Caspase-3 | good tumor inhibition effect | promote the release of cytochrome C from the mitochondria to the cytoplasm | 
COc1cccc2c1C(=O)c1c(O)c3c(c(O)c1C2=O)C[C@@](O)(C(=O)CO)C[C@@H]3O[C@H]1C[C@H](N)[C@H](O)[C@H](C)O1 [DOX.HCl, doxorubicin hydrochloride] |  |  |  |  |  | can kill normal cells at very low doses
Nc1ccn([C@@H]2O[C@H](CO)[C@@H](O)C2(F)F)c(=O)n1 [Gem.HCl, gemcitabine hydrochloride] |  |  |  |  |  | can kill normal cells at very low doses
